Data: patent US20090232735A1, “USE OF FRUCTOSE-BASED THERAPIES FOR THE TREATMENT OF CANCER” (CEDARS-SINAI MEDICAL CENTER, priority 2005, published 2009)

Test system: AP1 activation in MCF-7 breast cancer cells
Experiment: ELISA-based transbinding AP1 assay in breast cancer cells
Assay type: cell-based, human
Settings: 5.5 mM sugar
Description: FIG. 12 depicts an increase in AP1 activation in fructose-treated cells in accordance with an embodiment of the present invention. MCF-7 breast cancer cells were incubated in 2 mM glucose, or 5 mM glucose or fructose for 24 h, after which nuclear extracts were incubated with a biotinylated AP-1 probe in binding buffer. AP-1/AP1 probe complexes were next conjugated to a streptavidin-coated assay plate and detected using an AP-1 specific antibody, followed by binding of a horseradish-peroxidase conjugated secondary antibody, and detection by a colorimetric reagent. *, p<0.001.
Although several signal transduction pathways are likely involved in the fructose-mediated enhanced breast cancer growth and while not wishing to be bound by any particular theory, the inventors believe that the MAP-kinase pathway is involved. The inventors have used Western blot analysis to examine the MAPK pathway in breast cancer cells incubated in 2 mM glucose, 5.5 mM glucose, and 5.5 mM fructose for 48 hours. […] Activation of MEK, and subsequently ERK results in phosphorylation of p90^Rsk, which leads to transcriptional activation of CREB and AP1, which bind to cAMP or AP1 response elements respectively, activating gene transcription and promoting cellular growth.

O=C(CO)[C@@H](O)[C@H](O)[C@H](O)CO [fructose]
increase in AP1 activation: 3 fold
